The values below come from patent publication US20220087987A1, “A METHOD FOR TREATING SWI/SNF COMPLEX-DEFICIENT CANCERS COMPRISING GLUTATHIONE (GSH) METABOLIC PATHWAY INHIBITOR” (National Cancer Center, priority 2018, published 2022).

Structures can show the parent of a compound that is named as a salt. Where two headings read alike, the source gives them in different places.

Common to all, as to type: cell-based, human
In one data set the test system is p53, p21. Briefly: Immunoblot for p53 and p21. The note with it: ARID1A-WT and ARID1A-KO HCT116; 50 μM PRIMA-1, 50 μM APR-246, 10 μM Nutlin3a, 16 hrs. Here is the method: The soluble fractions of whole-cell lysates were mixed with SDS sample buffer. […] The soluble fractions were mixed with SDS sample buffer. Tumor samples derived from xenografts were weighed and washed with PBS. […] The homogenized tumor samples were diluted in an additional 450 μl of NETN420 buffer, incubated for 30 min on ice, and centrifuged at 4° C. for 10 min at 15,000 rpm. The soluble fractions of whole-cell lysates were mixed with SDS sample buffer. Proteins were separated by SDS-PAGE, transferred to PVDF membranes, and immunoblotted with the indicated antibodies. β-actin was used as a loading control. Membranes were blocked overnight at 4° C. or for 1 hr at 25° C. with PVDF Blocking Reagent for Can Get Signal (TOYOBO) and then probed with Can Get Signal Solution 1 (TOYOBO) containing primary antibodies. After washing with TBS containing 0.1% Tween 20, the membranes were incubated with TBS containing 0.1% Tween 20, 1% BSA, and horseradish peroxidase-conjugated anti-mouse or anti-rabbit secondary antibodies, and visualized using Western Lightning ECL Pro (Perkin Elmer). Chemiluminescence signals were measured using LAS-3000 Imaging System (Fujifilm). Signal intensities were measured using Multi Gauge software.

Data set [1] deals with ARID1A-proficient and ARID1A-deficient cancer cell lines. Put plainly: Cell viability and colony formation in cancer cell line panel.
The subject of the next data set is GSH. Put plainly: Detection of GSH in cells (GSH/GSSG-Glo, GSH-Glo). The following applies: ARID1A-deficient versus ARID1A-proficient ovarian and other cancer cells.
The subject of another data set is ROS. Briefly: Detection of ROS in cells (ROS-Glo). The following applies: ARID1A-deficient versus ARID1A-proficient ovarian and other cancer cells. Here is the method: GSH, ROS and apoptosis were detected using the GSH/GSSG-Glo Assay (Promega) and/or the GSH-Glo Assay (Promega), the ROS-Glo Assay (Promega), and the Caspase-Glo 3/7 Assay, respectively. To measure levels of GSH, ROS and apoptosis after drug treatment, cells were trypsinized, counted, reseeded at the specified density in 96-well plates and exposed to the indicated concentrations of drugs. After 16-48 hrs, luminescence was measured using an Envision Multi-label plate reader (PerkinElmer). To measure levels of GSH and ROS after siRNA-mediated knockdown, cell lines were transfected with siRNAs (25 nM) using Lipofectamine RNAiMAX. After 48 hrs, cells were trypsinized and transfected repeatedly with siRNAs (25 nM) using Lipofectamine RNAiMAX. Cells were trypsinized after a further 48 hrs, counted, and reseeded at the specified density in 96-well plates. After 72-120 hrs, luminescence was measured using an Envision Multi-label plate reader (PerkinElmer). Cell viability was also measured using the CellTiter-Glo Luminescent Cell Viability Assay (Promega). Caspase-3/7, GSH, and ROS levels were normalized against cell viability. The GSH/GSSG ratio was calculated as the GSH-GSSG signal divided by the GSSG/2 signal. Relative signal ratios in treated samples were normalized against untreated samples.

A short description of data set [2]: Drug library screen, cell viability (CellTiter-Glo). The following applies: human. In a few lines:
(§1)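 Luminescent ATP read-out (CellTiter-Glo) at day 5, normalised to solvent (DMSO) controls, in paired HCT116 lines, ARID1A knockout versus wild type. Candidates selected where KO cells fell below 40% viability and WT cells stayed above 80%.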

A further data set has as its system ARID1A-KO HCT116 cells. The description is as above. The note with it: Homo sapiens, HCT-116, 120 h, read-out: Cell viability, KO. The method in brief: as §1
Where [3] appears, read: HCT116 ARID1A-WT, 10 μM for 5 days, relative to cells treated with solvent (DMSO), read-out: Cell viability, WT.
[4] abbreviates: HCT116 ARID1A-KO, 10 μM for 5 days, relative to cells treated with solvent (DMSO).

As for `COc1ccc(C2=N[C@@H](c3ccc(Cl)cc3)[C@@H](c3ccc(Cl)cc3)N2C(=O)N2CCNC(=O)C2)c(OC(C)C)c1` [Nutlin3a], in the data set with p53, p21, the “expression of p53 and p21” value is “increased the p53 level and upregulated the p53 target p21”.

In the case of `CC(=O)OC[C@H]1O[C@@H]([S-])[C@H](OC(C)=O)[C@@H](OC(C)=O)[C@@H]1OC(C)=O.CCP(CC)CC.[Au+]` [auranofin], the “sensitivity of ARID1A-deficient versus ARID1A-proficient cancer cells” value in data set [1] (four ARID1A-proficient and six ARID1A-deficient cell lines, cell viability, colony formation) is on record as “more sensitive to the TrxR inhibitor auranofin than ARID1A-proficient cells”. Also, the “GSH level in cancer cell lines” value in the data set with GSH is reported as “more evident in ARID1A-deficient cancer cells”. In addition, in the data set with ROS, the “ROS level in cancer cell lines” value is “more evident in ARID1A-deficient cancer cells”.

As for `O=C(O)c1cc(/N=N/c2ccc(S(=O)(=O)Nc3ccccn3)cc2)ccc1O` [sulfasalazine], in data set [1] (cell viability after 3 days), the “sensitivity of ARID1A-deficient TOV21G versus ARID1A-proficient RMG-I ovarian cancer cells” value was “more sensitive than ARID1A-proficient RMG-I ovarian cancer cells”.

With `CNC(=O)[C@H](Cc1c[nH]c2ccccc12)NC(=O)[C@@H](CC(=O)NO)CC(C)C` [GM 6001], in data set [2] (setting [3]), the viability at 5 days, 10 μM was 188%. In addition, the viability at 10 µM with ARID1A-KO HCT116 cells (setting [4]) came to 123%.

For the compound `C[C@@H]1C[C@H]2O[C@@H]2/C=C\C=C\C(=O)Cc2c(Cl)c(O)cc(O)c2C(=O)O1` [Radicicol], the viability at 5 days, 10 μM in data set [2] (setting [3]) was found to be 7.12%. Besides, the viability at 10 µM in the data set on ARID1A-KO HCT116 cells (setting [4]) amounted to 5.65%.

For `N#CC(=C(/N)Sc1ccccc1N)/C(C#N)=C(\N)Sc1ccccc1N` [U0126], in data set [2], the viability amounted to 80.5%. Also, the viability at 10 µM in the data set with ARID1A-KO HCT116 cells worked out at 68.3%.

In the case of `COc1cc(O)c(CC=C(C)C)c(O)c1C(=O)/C=C/c1ccc(O)cc1` [Xanthohumol], the viability at 5 days, 10 μM in data set [2] (setting [3]) was 104%. Further, the viability at 10 µM in the data set on ARID1A-KO HCT116 cells (setting [4]) is 112%.

As for `C[C@]12CCC(=O)C(O)=C1CC[C@@H]1[C@@H]2CC[C@]2(C)C(=O)CC[C@@H]12` [Formestane], the viability in data set [2] (setting [3]) is 108%. Moreover, the viability at 10 µM in the data set with ARID1A-KO HCT116 cells (setting [4]) was found to be 69.5%.

With `Cc1ncc2ccccc2c1C#N` [4-cyano-3-methylisoquinoline], the viability at 5 days, 10 μM in data set [2] (setting [3]) came out at 143%. Moreover, the viability at 10 µM in the data set on ARID1A-KO HCT116 cells (setting [4]) was 164%.

For the compound `CC(Cc1ccc(O)c(O)c1)C(C)Cc1ccc(O)c(O)c1` (stereo not shown) [Nordihydroguaiaretic acid (NDGA), Nordihydroguaiaretic acid], the viability at 5 days, 10 μM in data set [2] (setting [3]) was 101%. Also, the viability at 10 µM in the data set on ARID1A-KO HCT116 cells (setting [4]) stood at 112%.

Regarding `COc1cc2nc(N3CCCN(C)CC3)nc(NC3CCN(Cc4ccccc4)CC3)c2cc1OC` [BIX01294], in data set [2] (setting [3]), the viability at 5 days, 10 μM was 2.57%. In addition, the viability at 10 µM in the data set on ARID1A-KO HCT116 cells (setting [4]) is 4.49%.

With `C=CC[C@@H]1/C=C(\C)C[C@H](C)C[C@H](OC)[C@H]2O[C@@](O)(C(=O)C(=O)N3CCCC[C@H]3C(=O)O[C@H](/C(C)=C/[C@@H]3CC[C@@H](O)[C@H](OC)C3)[C@H](C)[C@@H](O)CC1=O)[C@H](C)C[C@@H]2OC` [FK-506], the viability at 5 days, 10 μM in data set [2] (setting [3]) stood at 173%. Besides, in the data set with ARID1A-KO HCT116 cells (setting [4]), the viability at 10 µM was found to be 130%.

With `C#Cc1cccc(Nc2ncnc3cc(OCCOC)c(OCCOC)cc23)c1` [erlotinib], the viability at 5 days, 10 μM in data set [2] (setting [3]) was 48.1%. For the same compound, in the data set with ARID1A-KO HCT116 cells (setting [4]), the viability at 10 µM amounted to 48.6%.

In the case of `C[n+]1cc2c3c(ccc2c2ccc4cc5c(cc4c21)OCO5)OCO3` [Sanguinarine], in data set [2] (setting [3]), the viability amounted to 1.83%. Besides, the viability at 10 µM with ARID1A-KO HCT116 cells (setting [4]) stood at 2.09%.

Take `CS(=O)(=O)CCNCc1ccc(-c2ccc3ncnc(Nc4ccc(OCc5cccc(F)c5)c(Cl)c4)c3c2)o1` [lapatinib]: the viability at 5 days, 10 μM in data set [2] (setting [3]) turned out to be 52.7%. Also, in the data set on ARID1A-KO HCT116 cells (setting [4]), the viability at 10 µM turned out to be 78.4%.

Take `O=c1c2ccccc2[nH]c(=S)n1CCN1CCC(=C(c2ccc(F)cc2)c2ccc(F)cc2)CC1` [Diacylglycerol kinase inhibitor II]: the viability at 5 days, 10 μM in data set [2] (setting [3]) came to 141%. Also, the viability at 10 µM in the data set on ARID1A-KO HCT116 cells (setting [4]) stood at 171%.

With `C/C=C(/C)C(=O)O[C@H]1C(C)=C2[C@H]([C@@H]1OC(=O)CCCCCCC)[C@@](C)(OC(C)=O)C[C@H](OC(=O)CCC)[C@@]1(O)[C@H]2OC(=O)[C@@]1(C)O` [Thapsigargin], in data set [2], the viability at 5 days, 10 μM amounted to 2.63%. Besides, the viability at 10 µM in the data set with ARID1A-KO HCT116 cells turned out to be 2.88%.

Turning to `CNCCCN1c2ccccc2CCc2ccccc21` [desipramine hydrochloride], in data set [2] (setting [3]), the viability at 5 days, 10 μM amounted to 34.6%. Further, in the data set with ARID1A-KO HCT116 cells (setting [4]), the viability at 10 µM is 63.1%.

Take `Cn1c(=O)c2[nH]cnc2n(C)c1=O` [Theophylline]: the viability at 5 days, 10 μM in data set [2] (setting [3]) was 203%. Besides, the viability at 10 µM with ARID1A-KO HCT116 cells (setting [4]) is 140%.

Turning to `O=C1CCC(N2C(=O)c3ccccc3C2=O)C(=O)N1` (stereo not shown) [thalidomide], in data set [2] (setting [3]), the viability at 5 days, 10 μM was 95%. In the data set on ARID1A-KO HCT116 cells (setting [4]), the viability at 10 µM was found to be 107%.

As for `CSc1ccc(/C=C2/C(C)=C(CC(=O)O)c3cc(F)ccc32)cc1` [Sulindac sulfide], the viability at 5 days, 10 μM in data set [2] (setting [3]) worked out at 195%. The viability at 10 µM with ARID1A-KO HCT116 cells (setting [4]) amounted to 140%.

On to `COc1ccc([C@@H]2Sc3ccccc3N(CCN(C)C)C(=O)[C@@H]2OC(C)=O)cc1` [Diltiazem], for which, in data set [2] (setting [3]), the viability at 5 days, 10 μM came out at 102%. Besides, in the data set with ARID1A-KO HCT116 cells (setting [4]), the viability at 10 µM turned out to be 115%.

For `Nc1ncn([C@H]2C[C@H](O)[C@@H](CO)O2)c(=O)n1` [Decitabine], the viability at 5 days, 10 μM in data set [2] (setting [3]) was determined as 30.8%. For the same compound, the viability at 10 µM in the data set with ARID1A-KO HCT116 cells (setting [4]) was 30.4%.

Regarding `CO[C@@H]1[C@H](OC(=O)/C=C/C=C/C=C/C=C/C(=O)O)CC[C@]2(CO2)[C@H]1[C@@]1(C)O[C@@H]1CC=C(C)C` [Fumagillin], the viability at 5 days, 10 μM in data set [2] (setting [3]) is 96.4%. For the same compound, in the data set on ARID1A-KO HCT116 cells, the viability at 10 µM came to 82.2%.

Regarding `CNC(=O)c1cc(Oc2ccc(NC(=O)Nc3ccc(Cl)c(C(F)(F)F)c3)cc2)ccn1` [sorafenib], the viability at 5 days, 10 μM in data set [2] (setting [3]) was determined as 61.4%. In the data set with ARID1A-KO HCT116 cells (setting [4]), the viability at 10 µM is 70.4%.

As to `COc1cc([C@@H]2c3cc4c(cc3[C@@H](O[C@@H]3O[C@@H]5CO[C@@H](C)O[C@H]5[C@H](O)[C@H]3O)[C@H]3COC(=O)[C@H]23)OCO4)cc(OC)c1O` [Etoposide (VP-16), Etoposide], in data set [2] (setting [3]), the viability at 5 days, 10 μM turned out to be 30.6%. Further, in the data set on ARID1A-KO HCT116 cells (setting [4]), the viability at 10 µM was 27.4%.

As to `O=C(O)c1nn(Cc2ccc(Cl)cc2Cl)c2ccccc12` [Lonidamine], the viability at 5 days, 10 μM in data set [2] (setting [3]) was found to be 98.4%. In the data set on ARID1A-KO HCT116 cells (setting [4]), the viability at 10 µM worked out at 116%.

Consider `CC[C@@]1(O)C(=O)OCc2c1cc1n(c2=O)Cc2cc3ccccc3nc2-1` [Camptothecin], for which the viability at 5 days, 10 μM in data set [2] (setting [3]) stood at 2.97%. Moreover, the viability at 10 µM in the data set with ARID1A-KO HCT116 cells (setting [4]) turned out to be 4.03%.
